Experimental findings from article PMC9971101, “Comparison of Five Near-Infrared Fluorescent Folate Conjugates in an Ovarian Cancer Model” (Molecular Imaging and Biology, 2021) are described below.

The nature of data set [1]: Fluorescence spectroscopy (excitation and emission spectra). Format: physicochemical. The procedure:
The spectral characteristics of the conjugates 1–5 were determined using a Spark 20M plate reader (Tecan, Switzerland). The emission and excitation of all conjugates were measured in triplicates with a bandwidth of 5 nm in a 96-well Half-Area Microplate at a concentration of 100 μM dissolved in phosphate buffered saline (PBS). The fluorescence intensity was plotted as normalised relative fluorescence units (RFU).
Using conjugates 1–5, we evaluated how the conjugation of the different fluorophores to EDAF (Fig. 1a) affected the optical properties. To do so, we defined their individual excitation and emission spectra, and determined the optimal FLI parameters. The different conjugates (Fig. 1b) were diluted in medium or in DMSO and the peak excitation and emission obtained are reported in Table 1, Fig. 1c and Fig. S17.

For data set [2], the system named is Skov-3 subcutaneous xenografts. The data set is described as follows: In vivo biodistribution and optimal time point FLI in subcutaneous Skov-3 xenograft model (IVIS Spectrum). The arrangement: species or system NOD-scid IL2Rg^null mice. Particulars: for tumour to background ratio (TBR): mean ± SD; for excretion route: mice. The procedure:
(§1) All applicable institutional and/or national guidelines for the care and use of animals were followed. All experiments were approved by The Norwegian Animal Research Authority and conducted according to The European Convention for the Protection of Vertebrates Used for Scientific Purposes (Application ID 14128). NOD-scid IL2Rg^null mice (referred to as NSG) were housed in groups of ≤ 5 in individually ventilated cages changed twice per month and kept in a 12-h […] schedule at 21 °C at the Vivarium, University of Bergen. Observations for general condition and body weights were recorded twice per week and, when indicated, the animals were euthanised according to institutional guidelines. Skov-3 and A549 subcutaneous xenografts were established through bi-lateral flank injections of 5 × 10^6 cells, resuspended in 100 μL PBS containing 16.7% Matrigel (Corning Inc., MA, USA). Tumour volumes were measured weekly with a digital calliper and calculated using the ellipsoid volume formula: Volume = π (length × width × height)/6.
For biodistribution assessment of conjugates 1–5, mice were intravenously (iv) injected with 100 μL of a 10-μM conjugate solution when mean tumour volumes reached ≈150 mm^3, corresponding to a dose of […]. The dose was chosen on the basis of preclinical mouse models previously performed using folate-NIR (OTL38) FLI [28]. To determine the timepoint for the optimal TBR, optical imaging was performed at 0 h, 0.5 h, 1 h, 2 h, 4 h, 6 h, 8 h, 24 h and 48 h using the IVIS Spectrum. Fluorescence signals were analysed with the Living Imaging® software v4.5 (PerkinElmer Inc.) and expressed as average radiance (p/s/cm^2/sr). Regions of interest (ROI) were manually drawn around the subcutaneous tumours in the flanks and the adjacent tissue to calculate TBRs at all time points. Next, subcutaneous xenograft models were imaged at the pre-determined optimal time points, which were 4 h for conjugates 1, 2 and 3 and 24 h for conjugates 4 and 5.

The test system of data set [3] is Skov-3 and A549 subcutaneous xenografts. In words: Ex vivo tumour and organ biodistribution (IVIS Spectrum and FLARE intraoperative system). Particulars: for ex vivo fluorescence signal in tumours (FLARE): Skov-3 tumour; for ex vivo fluorescence in the kidneys (FLARE): exposure time 1000 ms. Format: in vivo, NOD-scid IL2Rg^null mice. Here is the method:
as §1
Organ biodistribution was assessed ex vivo for each conjugate in Skov-3 and in the control cell line, A549. Four hours after iv administration of 1, 2 and 3 and 24 h after injection of 4 and 5 (100 μl, 10 μM), mice were euthanised and tumours and organs were harvested. FLI was performed with the IVIS Spectrum, and subsequently, fluorescence was acquired using the FLARE® intraoperative system (Curadel LLC), employing the NIR channel #2 (λex = 760 ± 3 nm and λem = > 781 nm longpass) at three different exposure times (500, 1000 and 2000 ms) at a gain of 1. IVIS Spectrum data were analysed as previously described, and FLARE data were analysed using ImageJ (Fiji, version 1.52p, [29]) and the integrated FLARE analysis platform using grey scale values expressed in arbitrary units (AU).

For data set [4] the test system is unchanged. The data set is described as follows: In vivo FLI at optimal time points, Skov-3 versus A549 xenografts (target specificity). Particulars: 4 h after iv injection, p < 0.05. The arrangement: species or system NOD-scid IL2Rg^null mice. Here is the method:
as §1, with “Skov-3 and A549 subcutaneous xenografts were established through bi-lateral flank injections of 5 × 10^6 cells, resuspended in 100 μL PBS containing 16.7% Matrigel (Corning Inc., MA, USA).” left out
For biodistribution assessment of conjugates 1–5, mice were intravenously (iv) injected with 100 μL of a 10-μM conjugate solution when mean tumour volumes reached ≈150 mm^3, corresponding to a dose of 500 nmol/mouse. […] Fluorescence signals were analysed with the Living Imaging® software v4.5 (PerkinElmer Inc.) and expressed as average radiance (p/s/cm^2/sr). […] Next, subcutaneous xenograft models were imaged at the pre-determined optimal time points, which were 4 h for conjugates 1, 2 and 3 and 24 h for conjugates 4 and 5.

The mark [5] stands for this setting: 4 h after iv injection, Skov-3 subcutaneous xenograft.
Where [6] appears, read: 8 h after iv injection, Skov-3 subcutaneous xenograft.
Where [7] appears, read: 4 h after iv injection, exposure time 2000 ms.
Where [8] appears, read: 24 h after iv injection, Skov-3 subcutaneous xenograft.
Where [9] appears, read: 24 h after iv injection, exposure time 2000 ms.
The mark [10] stands for this setting: Skov-3 xenografted mice, 24 h after iv injection.

As to `CC1(C)C(/C=C/C2=C(c3ccc(CCC(=O)NCCNC(=O)CC[C@H](NC(=O)c4ccc(NCc5cnc6nc(N)[nH]c(=O)c6n5)cc4)C(=O)O)cc3)C(=C/C=C3/N(CCC[N+](C)(C)C)c4ccc(S(=O)(=O)O)cc4C3(C)C)/CCC2)=[N+](CCC[N+](C)(C)C)c2ccc(S(=O)(=O)O)cc21` [Conjugate 2, 2-((E)-2-((E)-4'-(3-((2-((S)-4-(4-(((2-amino-4-oxo-3,4-dihydropteridin-6-yl)methyl)amino)benzamido)-4-carboxybutanamido)ethyl)amino)-3-oxopropyl)-6-(2-((E)-3,3-dimethyl-5-sulfonato-1-(3-(trimethylammonio)propyl)indolin-2-ylidene)ethylidene)-3,4,5,6-tetrahydro-[1,1'-biphenyl]-2-yl)vinyl)-3,3-dimethyl-1-(3-(trimethylammonio)propyl)-3H-indol-1-ium-5-sulfonate], in data set [1] (DMSO), the Stokes shift came to 28 nm, the λem is reported as 802 nm and the λex amounted to 774 nm. For the same molecule, in data set [1] (culture medium), the Stokes shift amounted to 28 nm, the λem came out at 788 nm and the λex is listed as 760 nm. In addition, the “tumour to background ratio (TBR)” value in data set [2] (setting [5]) amounted to 1.8 ± 0.2. Besides, the “tumour to background ratio (TBR)” value in data set [2] (setting [6]) was 2.0 ± 0.2. Besides, the “time that the fluorescence signal in Skov-3 tumours was sustained” value in data set [2] (after iv injection, last imaging time point 48 h) is reported as “up to 48 h”. Moreover, the excretion route result in data set [2] (iv injection) was “renally cleared”. For the same molecule, the “ex vivo fluorescence signal in tumours (FLARE)” value (from here on “ex vivo fluorescence signal”) in data set [3] (setting [7]) was determined as 213.1 ± 51.0 AU. Also, the “difference in average radiance between Skov-3 and A549 tumours” value in data set [4] is listed as “significant difference”.
For the molecule `C[N+]1=C(/C=C/C2=C(Cl)C(=C/C=C3/N(CCCCCC(=O)NCCNC(=O)CC[C@H](NC(=O)c4ccc(NCc5cnc6nc(N)[nH]c(=O)c6n5)cc4)C(=O)O)c4ccccc4C3(C)C)/CCC2)C(C)(C)c2ccccc21` [Conjugate 5, 2-((E)-2-((E)-3-(2-((E)-1-(6-((2-((S)-4-(4-(((2-amino-4-oxo-3,4-dihydropteridin-6-yl)methyl)amino)benzamido)-4-carboxybutanamido)ethyl)amino)-6-oxohexyl)-3,3-dimethylindolin-2-ylidene)ethylidene)-2-chlorocyclohex-1-en-1-yl)vinyl)-1,3,3-trimethyl-3H-indol-1-ium], in data set [1] (DMSO), the Stokes shift turned out to be 24 nm, the λem is 820 nm and the λex is 796 nm. Also, in data set [1] (culture medium), the Stokes shift is 15 nm, the λem was 804 nm and the λex was determined as 789 nm. In addition, in data set [2] (setting [8]), the “tumour to background ratio (TBR)” value is reported as 2.1 ± 0.6. Moreover, the excretion route entry in data set [2] (iv injection) is “hepatobiliary excretion”. Moreover, the “time at which tumour fluorescence became evident” value in data set [2] (post-injection, Skov-3 subcutaneous xenograft) stood at 4 h. Moreover, the “ex vivo organ accumulation (IVIS Spectrum)” value in data set [3] (24 h after iv injection) is “in the stomach”. For the same molecule, the “ex vivo fluorescence signal” value in data set [3] (setting [9]) was found to be 60.9 ± 6.3 AU. Further, the “ex vivo fluorescence in the kidneys (FLARE)” value in data set [3] (setting [10]) came to 63.9 ± 11.3 AU.
For the molecule `CC1(C)C(/C=C/C2=C(Oc3ccc(S(=O)(=O)O)cc3)C(=C/C=C3/N(CCCCS(=O)(=O)O)c4ccc(S(=O)(=O)[O-])cc4C3(C)C)/CCC2)=[N+](CCCCCC(=O)NCCNC(=O)CC[C@H](NC(=O)c2ccc(NCc3cnc4nc(N)[nH]c(=O)c4n3)cc2)C(=O)O)c2ccc(S(=O)(=O)O)cc21` [Conjugate 3, 1-(6-((2-((S)-4-(4-(((2-amino-4-oxo-3,4-dihydropteridin-6-yl)methyl)amino)benzamido)-4-carboxybutanamido)ethyl)amino)-6-oxohexyl)-2-((E)-2-((E)-3-(2-((E)-3,3-dimethyl-5-sulfonato-1-(4-sulfonatobutyl)indolin-2-ylidene)ethylidene)-2-(4-sulfonatophenoxy)cyclohex-1-en-1-yl)vinyl)-3,3-dimethyl-3H-indol-1-ium-5-sulfonate], in data set [1] (DMSO), the Stokes shift worked out at 28 nm, the λem is given as 826 nm and the λex is on record as 798 nm. Further, in data set [1] (culture medium), the Stokes shift is 25 nm, the λem worked out at 808 nm and the λex was determined as 783 nm. Moreover, the “tumour to background ratio (TBR)” value in data set [2] (setting [5]) came to 1.2 ± 0.2. Also, in data set [2] (setting [6]), the “tumour to background ratio (TBR)” value was found to be 1.4 ± 0.3. For the same molecule, the “residual fluorescence in healthy organs in vivo” value in data set [2] (24 h after iv injection) is “residual fluorescence signal in the kidneys”. The excretion route result in data set [2] (iv injection) is “renally cleared”. Also, the “ex vivo fluorescence signal” value in data set [3] (setting [7]) was 189.7 ± 27.1 AU. For the same molecule, the “ex vivo fluorescence in the kidneys (FLARE)” value in data set [3] (Skov-3 xenografted mice, 4 h after iv injection) is listed as 913.6 ± 248.9 AU.
Take `CC1(C)C(/C=C/C2=C(Oc3ccc(CCC(=O)NCCNC(=O)CC[C@H](NC(=O)c4ccc(NCc5cnc6nc(N)[nH]c(=O)c6n5)cc4)C(=O)O)cc3)C(=C/C=C3/N(CCC[N+](C)(C)C)c4ccc(S(=O)(=O)O)cc4C3(C)C)/CCC2)=[N+](CCC[N+](C)(C)C)c2ccc(S(=O)(=O)O)cc21` [Conjugate 1, 2-((E)-2-((E)-2-(4-(3-((2-((S)-4-(4-(((2-amino-4-oxo-3,4-dihydropteridin-6-yl)methyl)amino)benzamido)-4-carboxybutanamido)ethyl)amino)-3-oxopropyl)phenoxy)-3-(2-((E)-3,3-dimethyl-5-sulfonato-1-(3-(trimethylammonio)propyl)indolin-2-ylidene)ethylidene)cyclohex-1-en-1-yl)vinyl)-3,3-dimethyl-1-(3-(trimethylammonio)propyl)-3H-indol-1-ium-5-sulfonate]: in data set [1] (DMSO), the Stokes shift came out at 24 nm, the λem came out at 816 nm and the λex worked out at 792 nm. Moreover, in data set [1] (culture medium), the Stokes shift is given as 25 nm, the λem is reported as 802 nm and the λex came out at 777 nm. Also, the “tumour to background ratio (TBR)” value in data set [2] (setting [5]) amounted to 1.9 ± 0.3. The “tumour to background ratio (TBR)” value in data set [2] (setting [6]) was found to be 2.0 ± 0.4. Also, the “residual fluorescence in healthy organs in vivo” value in data set [2] (24 h after iv injection) was “residual fluorescence signal in the kidneys”. In addition, the excretion route result in data set [2] (iv injection) is recorded as “renally cleared”. In data set [3] (setting [7]), the “ex vivo fluorescence signal” value came out at 156.9 ± 22.0 AU.
In the case of `CC1(C)C(/C=C/C=C/C=C/C=C2\N(CCCCCC(=O)NCCNC(=O)CC[C@H](NC(=O)c3ccc(NCc4cnc5nc(N)[nH]c(=O)c5n4)cc3)C(=O)O)c3ccc4ccccc4c3C2(C)C)=[N+](CCCCS(=O)(=O)[O-])c2ccc3ccccc3c21` [Conjugate 4, 4-(2-((1E,3E,5E,7Z)-7-(3-(6-((2-((S)-4-(4-(((2-amino-4-oxo-3,4-dihydropteridin-6-yl)methyl)amino)benzamido)-4-carboxybutanamido)ethyl)amino)-6-oxohexyl)-1,1-dimethyl-1,3-dihydro-2H-benzo[e]indol-2-ylidene)hepta-1,3,5-trien-1-yl)-1,1-dimethyl-1H-benzo[e]indol-3-ium-3-yl)butane-1-sulfonate], in data set [1] (DMSO), the Stokes shift amounted to 42 nm, the λem was found to be 832 nm and the λex stood at 790 nm. Further, in data set [1] (culture medium), the Stokes shift turned out to be 36 nm, the λem was 820 nm and the λex was 784 nm. Besides, the “tumour to background ratio (TBR)” value in data set [2] (0.5 h after iv injection, Skov-3 subcutaneous xenograft) was 1.3 ± 0.3. Also, in data set [2] (setting [8]), the “tumour to background ratio (TBR)” value turned out to be 1.0 ± 0.1. In addition, the accumulation in tumours entry in data set [2] (Skov-3 subcutaneous xenograft, iv injection) was “no accumulation in tumours”. Moreover, the excretion route entry in data set [2] (iv injection) is reported as “hepatobiliary excretion”. In data set [3] (24 h after iv injection), the “ex vivo organ accumulation (IVIS Spectrum)” value is on record as “mainly in the liver”. Further, the “ex vivo fluorescence signal” value in data set [3] (setting [9]) amounted to 56.4 ± 4.1 AU. The “ex vivo fluorescence in the kidneys (FLARE)” value in data set [3] (setting [10]) came to 100.4 ± 37.8 AU. Also, in data set [3] (Skov-3 xenografted mice, 24 h after iv injection, exposure time 2000 ms), the “ex vivo fluorescence intensity in the liver (FLARE)” value turned out to be 283.3 ± 38.7 AU.
